# In US7884124B2, “Fluoro-substituted inhibitors of D-amino acid oxidase” (Sepracor Inc., priority 2006, dated 2011):
# Columns and labels:
# Chung model rats = assay: Chung model (L5 spinal nerve ligation), paw withdrawal threshold with von Frey hairs; type: in vivo, rat
# Procedure: Adult male Sprague-Dawley rats, weighing 200-230 g at the time of surgery, were used. They were housed in groups of 4 in an air-conditioned room on a 12 h light/dark cycle. Food and water were available ad libitum. The animals were allowed to acclimatize to the experimental environment for three days by leaving them on a lifted metal mesh for at least 40 min. The baseline paw withdrawal threshold (PWT) was examined using a series of graduated von Frey hairs for 3 consecutive days before surgery and re-assessed on the 7th day after surgery and on the 11th to 14th day before drug dosing. The rat Chung model was prepared as described by Kim and Chung (1992). The rat was anaesthetized with 5% isoflurane mixed with oxygen (2 L per min) followed by an i.p. injection of sodium pentobarbitone at 50 mg/kg. The back was shaved and sterilized with 75% ethanol. The animal was placed in a prone position and a para-medial incision was made on the skin covering L4-6 level. The L5 spinal nerve was carefully isolated and tightly ligated with 6/0 silk suture. The wound was then closed in layers after a complete hemostasis. A single dose of antibiotics (Amoxipen 15 mg/rat, ip) was routinely given for prevention of infection after surgery. The animals were placed in a temperature controlled recovery chamber until fully awake before being returned to the home cage. The animals were placed in individual Perspex boxes on a raised metal mesh for at least 40 min before the test. Starting with the filament of lowest force, each filament was applied perpendicularly to the centre of the ventral surface of the paw until slightly bent for 6 seconds. If the animal withdrew or lifted the paw upon stimulation, then a hair with force immediately lower than that tested was used. If no response was observed, then a hair with force immediately higher was tested. The lowest amount of force required to induce reliable responses (positive in 3 out of 5 trials) was recorded as the value of PWT. Only those animals with significant allodynia (PWT≦3.5 g) were selected for drug dosing experiments. The rats in a neuropathic pain state were randomly divided into experimental groups: Vehicle group and 1 group had 8 rats and the gabapentin group had 9 rats. The drug test was carried out 12 to 14 days after surgery. Isotonic 50 mM phosphate buffer (PB), dosed orally at 3 mL/kg, served as the vehicle control. Gabapentin was dissolved in normal saline and given orally at 100 mg/kg. […] The PWT was assessed at 1, 3, 6 and 24 h following drug or vehicle administration. The animals were returned to their home cage for a break (about 30 min) between two neighboring testing time points. One-way analysis of variance (ANOVA) (SPSS software) was used for statistical analysis to compare different groups on the same time points. Paired Student-t test was used to compare different time points in the same group. The significance level was set at P<0.05.
# C57BL/6 male mice = assay: Contextual fear conditioning (freezing 24 hours after training); type: in vivo
# Excerpt: Young-adult C57BL/6 male mice were used. Mice were received at 6-7 weeks of age. Upon arrival, mice were assigned unique identification numbers (tail marked) and were group housed in polycarbonate cages with filter tops. All mice were acclimated to the colony room for at least four weeks prior to testing and were subsequently tested at an average age of 10-12 weeks of age. During the period of acclimation, mice were examined on a regular basis, handled, and weighed to assure adequate health and suitability. Mice were maintained on a 12/12 light/dark cycle with the light on at 6:00 a.m. The experiments were always conducted during the light phase of the cycle. The day before the initiation of the experiment, mice were housed single in individual cages and maintained so till the end of the experiment. Animals were randomly assigned across treatment groups. With the exception of testing times, the mice had ad lib access to food and water. Rolipram (0.1 mg/kg) was dissolved in 1% DMSO i.p. 20 min prior to training at a dose volume of 8 ml/kg. To assess contextual conditioning, we use a standardized contextual fear conditioning task originally developed for evaluation of memory in CREB mutant mice (Bourtchouladze, R. et al.; Cell 1994, 79, 59-68). Specifically, on the training day, the mouse is placed into the conditioning chamber for 2 minutes before the onset of the unconditioned stimulus (US), a 0.75 mA foot shock of 2 seconds duration. The US is repeated two times with a 1 min inter-trial interval between shocks. Training is performed using an automated software package. After the last training trial, a mouse is left in the conditioning chamber for another 30 sec and then placed back in its home cage. Contextual memory is tested 24 hours after training. The mouse is placed into the same training chamber and conditioning is assessed by scoring freezing behavior. Freezing is defined as the complete lack of movement in intervals of 5 seconds (Kim et al., 1993; Phillips & LeDoux, 1992; Bourtchouladze et al., 1994; 1998; Abel et al., 1997; Kogan et al., 1997). […]
compound,measurement,setting,value
"O=C(O)c1cc2sccc2[nH]1 [Compound 1, 4H-thieno[3,2-b]pyrrole-5-carboxylic acid]","PWT, ipsilateral side","Chung model rats; 30 mg/kg orally, 1 hour after dosing, before dosing 1.25±0.18 g",2.50 ± 0.33 g
same,"PWT, contralateral side","Chung model rats; 30 mg/kg orally, 1 hour after dosing, pre-drug level 8.80±0.13 g",8.15 ± 0.45 g
same,"PWT, ipsilateral side","Chung model rats; 30 mg/kg orally, 3 hours after dosing, before dosing 1.25±0.18 g",4.44 ± 0.27 g
same,"PWT, contralateral side","Chung model rats; 30 mg/kg orally, 3 hours after dosing, pre-drug level 8.80±0.13 g",8.90 ± 0.15 g
same,"PWT, ipsilateral side","Chung model rats; 30 mg/kg orally, 6 hours after dosing, before dosing 1.25±0.18 g",5.71 ± 0.66 g
same,"PWT, contralateral side","Chung model rats; 30 mg/kg orally, 6 hours after dosing, pre-drug level 8.80±0.13 g",9.70 ± 0.77 g
same,"PWT, ipsilateral side","Chung model rats; 30 mg/kg orally, 24 hours after dosing, before dosing 1.25±0.18 g",1.90 ± 0.38 g
same,"PWT, contralateral side","Chung model rats; 30 mg/kg orally, 24 hours after dosing, pre-drug level 8.80±0.13 g",8.35 ± 0.50 g
same,Time after dosing at which the effect on PWT reached a peak,"Chung model rats; 30 mg/kg orally, ipsilateral side",6 h
same,Activity in contextual fear conditioning,C57BL/6 male mice; 10 mg/kg P.O.,active
"O=C(O)c1cc2occc2[nH]1 [Compound 11, 4H-furo[3,2-b]pyrrole-5-carboxylic acid]",Effect on PWT,Chung model rats; oral dose of 10 mg/kg,significantly elevated the PWT
same,Time after dosing at which the effect on PWT reached a peak,Chung model rats; oral dose of 10 mg/kg,6 h
same,Time after dosing at which the increase in PWT was first observed,Chung model rats; oral dose of 10 mg/kg,1 h
same,Freezing 24 hours after training,"C57BL/6 male mice; 10 mg/kg p.o. 2 hrs prior to training, vehicle 33.3%+/−5.1%, n=10",69.7%+/−3.0%
"NCC1(CC(=O)O)CCCCC1 [Gabapentin, reference compound]","PWT, ipsilateral side","Chung model rats; gabapentin 100 mg/kg orally, 1 hour after dosing, before dosing 1.48±0.22 g",3.77 ± 0.42 g
same,"PWT, contralateral side","Chung model rats; gabapentin 100 mg/kg orally, 1 hour after dosing, before dosing 9.67±0.68 g",10.11 ± 0.93 g
same,"PWT, ipsilateral side","Chung model rats; gabapentin 100 mg/kg orally, 3 hours after dosing, before dosing 1.48±0.22 g",6.27 ± 0.76 g
same,"PWT, contralateral side","Chung model rats; gabapentin 100 mg/kg orally, 3 hours after dosing, before dosing 9.67±0.68 g",10.11 ± 0.93 g
same,"PWT, ipsilateral side","Chung model rats; gabapentin 100 mg/kg orally, 6 hours after dosing, before dosing 1.48±0.22 g",2.38 ± 0.29 g
same,"PWT, contralateral side","Chung model rats; gabapentin 100 mg/kg orally, 6 hours after dosing, before dosing 9.67±0.68 g",8.29 ± 0.42 g
same,"PWT, ipsilateral side","Chung model rats; gabapentin 100 mg/kg orally, 24 hours after dosing, before dosing 1.48±0.22 g",2.69 ± 0.60 g
same,"PWT, contralateral side","Chung model rats; gabapentin 100 mg/kg orally, 24 hours after dosing, before dosing 9.67±0.68 g",9.40 ± 0.71 g
same,Time after dosing at which the effect on PWT reached a peak,Chung model rats; gabapentin orally dosed at 100 mg/kg,3 h
same,Effect on PWT,"Chung model rats; gabapentin orally dosed at 100 mg/kg, positive control",significantly increased the PWT
"COc1ccc(C2CNC(=O)C2)cc1OC1CCCC1 (stereo not shown) [Rolipram, reference compound]",Freezing 24 hours after training,"C57BL/6 male mice; Rolipram 0.1 mg/kg i.p. 20 min prior to training, vehicle 27.2%+/−3.6%",44.4%+/−4.4%
